Counter-ions that a name gives are not always drawn.
How the values were obtained:
plasma proteins = settings: concentration range of 0.1 to 2.0 μg/mL; cited from earlier work
[1] = cited from earlier work
[2] = cited from earlier work; remark: listed apart in the source
[3] = Solubility of amantadine HCl in water; format: physicochemical; settings: 160 mg, 240 mg and 320 mg of amantadine HCl

SMILES | bound to plasma proteins (plasma proteins) | volume of distribution ([1]; after intravenous administration) | reduction of renal clearance of amantadine ([1]; coadministration of quinine or quinidine) | administered dose excreted unchanged in urine ([1]; in vivo) | metabolism as share of total clearance ([1]; in vivo) | average elimination half-life ([2]; patients on chronic maintenance hemodialysis) | apparent plasma clearance ([2]; single dose 25 to 75 mg, 7 healthy elderly male volunteers, range 0.06 to 0.17) | half-life ([2]; single dose 25 to 75 mg, 7 healthy elderly male volunteers, range 20 to 41) | solubility in water [3]
NC12CC3CC(CC(C3)C1)C2 [Amantadine, amantadine] | 67% | 3 to 8 L/kg | about 30% | approximately 85% | 5-15% | eight days | 1.67 ± 0.67 mL/min/kg | 29 ± 7 h | 
NC12CC3CC(CC(C3)C1)C2 [amantadine HCl, Amantadine Hydrochloride] |  |  |  |  |  |  |  |  | soluble in 250 mL water

Reference: patent publication US10213394B1, “Composition and method for treating neurological disease” (Osmotica Kereskedelmi és Szolgáltató Korlátolt Felelõsségû …, priority 2018, dated 2019)
